Measurements: US20230303712A1, “METHODS OF TREATING GLIOBLASTOMA” (Ramot at Tel-Aviv University Ltd., priority 2020, published 2023)

Test system: human microglia
Experiment: Flow cytometry of CD163 and CD206 expression by microglia
Assay type: cell-based
Conditions: PD-GB4 CM with rSELP, or SELPi added to PD-GB4 CM
Description: Flow cytometry. For flow cytometry assays, cells were harvested using a cell scraper, and were then washed with PBS followed by additional washes with PBS supplemented with 1% BSA and 5 mM EDTA (FACS buffer). Tumor spheroids were recovered from Matrigel using Cell Recovery Solution (Corning) and washed with FACS buffer. To validate the purity of the microglia preparations, CD11b isolated cells or human microglia were incubated with TMEM119 and P2Y12-labeled antibodies for 1 h. For human TMEM119, primary antibody was unlabeled and cells were washed and incubated with secondary, Alexa 488 conjugated antibody. To assess P-Selectin and PSGL-1 expression, GB cells and microglia were seeded alone, co-cultured in a 2D petri dish, or grown as spheroids seeded in Matrigel. Cells were treated with control medium or CM for 48 h. They were then incubated with mouse anti-human P-Selectin antibody for 1 h on ice, and then were washed, and incubated with Alexa-488 labeled anti-mouse IgG binding protein for 1 h on ice. Alternatively, cells were incubated with rat anti-human PSGL antibody, and then were washed, and incubated with goat anti-rat, Alexa-488 labeled antibody for 1 h on ice. […] Fluorescence intensity was assessed using either an Attune flow cytometer (Life Technologies) or a Gallios™ flow cytometer (Beckman Coulter, USA) and the results were analyzed by Kaluza software (Beckman Coulter, USA).

## COc1ccc(C2CC(c3c(O)cc(C)oc3=O)=NCCS2)c(OC)c1 (stereo not shown) [SELPi, 3-[7-(2,4-Dimethoxyphenyl)-2,3,6,7-tetrahydro-1,4-thiazepin-5-yl]-4-hydroxy-6-methyl-2H-pyran-2-one]
  CD206 expression: reduced CD206 expression
